This is an account of results in patent US8022040B2, “Hydroxyapatite-binding peptides for bone growth and inhibition” (The Regents of the University of California, priority 2004, dated 2011).

For test [1] the following is noted: for HA nucleation templated by peptide deposited from cosolvent: 1.5 mg/ml in acetonitrile and water (1:1/v:v), dried on grid, soaked in mineral precursor solutions; for HA nucleation templated by peptide solution in 100% water: compared to peptides 1 and 2. As for the experimental part: (CaCl2 (10 mM)+Na2HPO4 (5 mM)→Ca10(OH)2(PO4)6). The inset photographs show the X-ray diffraction patterns of the crystals at each timepoint.
In order to investigate the nucleation ability of these binding peptides, the major 12-mer linear binding peptide was synthesized by solid phase synthetic method and subjected to HA-mineralization on holey carbon film-coated TEM grids according to J. D. Hartgerink, E. Beniash, S. I. Stupp, Science, 294, 1684 (2001), which is hereby incorporated by reference.
In order to study kinetics of HA nucleation by this peptide suspension, time dependence nucleation was investigated by preparing parallel TEM samples where HA was nucleated for 30 min (FIG. 20, Panel C), 1 hr (FIG. 20, Panel D), and 2 hrs (FIG. 20, Panel E) by same concentration peptide suspension.

A short description of test [2]: Flow cytometric measurement of fluorescence intensity of binding viruses on HA surfaces. On the procedure: (§1) Single crystalline and polycrystalline HA were freshly etched to remove carbonated contaminates and incubated with 1×10^10 pfu of phage of W4a-4-14 (Single 14), W4a-4-15 (single 15), HA-4-3 (poly 3), wild type (wild) phages suspension for these assays.
(§2) As described in Example 1, 4 mg of single crystalline HA was freshly etched to remove carbonated contaminates and incubated with 1×10^10 pfu of phage of constrained W4a-4-14 (Single 14), W4a-4-15 (single 15), HA-4-3 (poly 3), wild type (wild) phages suspension. After washing off with TBST (0.5%) ten times, the bound phage was eluted using glycine-HCl […] and titered to count number of bound phage.
After 30 minutes incubation of 4 mg/ml of HA crystals with ˜10^10 pfu/ml of each phage, CLP7, CLP12, or the wild type phages, the HA crystals were washed ten times with Tris-buffered saline solution (pH 7.5) contained 0.5% Tween 20. The phage bound to HA surfaces was labeled by R-phycoerythrin-conjugated monoclonal pVIII antibody (Amersham Pharmacia Biotech, UK), and the fluorescence images were acquired (Nikon fluorescence microscope, Japan) and the fluorescence intensity was quantified by FACS Calibur flow cytometer (BD Biosciences, Calif.).
Background: Flow cytometry measures light scatter and fluorescence of single cells or particles in a stream.

Test [3] in a line: Phage titering assay counting phage eluted from HA. In kind it is binding. As to conditions: FIG. 12 Panel B; comparing to the wild type viruses / the other three peptides; TBST (0.5%) wash, glycine-HCl elution. As for the experimental part:
as §1, §2

The mark [4] stands for this setting: 1.5 mg/ml peptide, two hours mineralization, 5 mM Na2HPO4 + 10 mM CaCl2.

Read-outs that look alike come from different tables or passages of the source. Positions of bridges follow the written chain, without caps; N, C: chain ends. No end group written: not given here.

APYHPTIPASVH-GGGK-biotin [peptide 5]: in test [1], the “HA nucleation templated by peptide deposited from cosolvent” value (“HA nucleation templated … from cosolvent” for short) is recorded as “nucleation phenomena similar to those templated by HA binding peptides” and the “HA nucleation templated by peptide solution in 100% water” value (shortened to “HA nucleation templated … in 100% water”) is listed as “relatively bigger amorphous calcium phosphate aggregation”.
For “Cys Asn Tyr Pro Thr Leu Lys Ser Cys (CNYPTLKSC; disulfide 1-9 (inferred); also: displayed on M13 phage) [single 14]”, the “binding to HA surfaces, rank among viruses tested” value in test [2] (phage-displayed peptides single 14, single 15, poly 3 and wild type) was “bind best to HA surfaces among all viruses tested”. Also, the “strength of HA binding relative to comparators” value in test [3] is reported as “almost three times stronger”.
With “NIYHPTPPQSVH-GGGK-biotin [control peptide 1]”, in test [1] (setting [4]), the “HA deposition templated by peptide (TEM/SAED)” value is “amorphous calcium phosphate deposition without any clear SAED patterns”.
Same read-out and setting: then “NPDHPDIPQDVH-GGGK-biotin [Control peptide 2]”, with “amorphous deposition of calcium phosphate without any clear diffraction patterns”.
As to NPYAPTIPQSVA-GGGK-biotin [peptide 4], in test [1], the “HA nucleation templated … from cosolvent” value was “nucleation phenomena similar to those templated by HA binding peptides” and the “HA nucleation templated … in 100% water” value was “relatively bigger amorphous calcium phosphate aggregation”.
On to NPYHPTIPQSVH [Single 15], for which the “improved binding affinity (fluorescence intensity of binding viruses on HA surfaces)” value in test [2] (flow cytometry, FIG. 12 Panel A, phage-displayed peptide compared to wild type phage, 1×10^10 pfu) is reported as “around 50%”.
For the substance NPYHPTIPQSVH-GGGK-biotin [peptide 3], in test [1], the “HA nucleation templated … from cosolvent” value was “nucleation phenomena similar to those templated by HA binding peptides” and the “HA nucleation templated … in 100% water” value is given as “reduced HA-nucleation ability with different morphology of HA crystals”.
With “NPYHPTIPQSVH-GGGK-biotin [single 15-biotin]”, the “HA deposition templated by peptide (TEM/SAED)” value in test [1] (setting [4]) is “well crystallized HA deposition”; in test [1] (15 mg/ml peptide, two hours, same amount of CaCl2 and Na2HPO4), “well-crystallized HA crystals”. Besides, the “HA nucleation, time dependence (TEM/SAED)” value was “amorphous deposition of calcium phosphate” in test [1] (30 min) and “fully developed HA crystals were nucleated” in test [1] (after 2 hours).
